Numbers after ± are expanded uncertainties.
Legend:
[1] = xn = mol fraction of the nth substance listed; details: 101 kPa, Liquid, x2 = 0; for viscosity: Concentric cylinders viscometry; for speed of sound: Pulse-echo method; for mass density: Vibrating tube method
[2] = 101 kPa, Liquid; for viscosity: Concentric cylinders viscometry; for speed of sound: Pulse-echo method; for mass density: Vibrating tube method

SMILES | viscosity ([2]; 298.15 K) [mPa·s] | speed of sound ([2]; 298.15 K) [m/s] | mass density ([2]; 298.15 K) [kg/m3] | viscosity ([2]; 303.15 K) [mPa·s] | speed of sound ([2]; 303.15 K) [m/s] | mass density ([2]; 303.15 K) [kg/m3] | viscosity ([2]; 308.15 K) [mPa·s] | speed of sound ([2]; 308.15 K) [m/s] | mass density ([2]; 308.15 K) [kg/m3] | viscosity ([2]; 313.15 K) [mPa·s] | speed of sound ([2]; 313.15 K) [m/s] | mass density ([2]; 313.15 K) [kg/m3] | viscosity ([2]; 318.15 K) [mPa·s] | speed of sound ([2]; 318.15 K) [m/s] | mass density ([2]; 318.15 K) [kg/m3] | viscosity ([2]; 323.15 K) [mPa·s] | speed of sound ([2]; 323.15 K) [m/s] | mass density ([2]; 323.15 K) [kg/m3] | also measured
C1COCCO1 [1,4-dioxane] + CCCCCCCO | – | – | – | – | – | – | – | – | – | – | – | – | – | – | – | – | – | – | viscosity ([1]; 298.15 K): 1.212 ± 0.042 mPa·s; speed of sound ([1]; 298.15 K): 1345.1 ± 1.2 m/s; mass density ([1]; 298.15 K): 1027.99 ± 0.25 kg/m3; viscosity ([1]; 303.15 K): 1.115 ± 0.039 mPa·s; speed of sound ([1]; 303.15 K): 1323.1 ± 1.2 m/s; mass density ([1]; 303.15 K): 1022.33 ± 0.25 kg/m3; viscosity ([1]; 308.15 K): 1.028 ± 0.036 mPa·s; speed of sound ([1]; 308.15 K): 1301.3 ± 1.2 m/s; mass density ([1]; 308.15 K): 1016.66 ± 0.24 kg/m3; viscosity ([1]; 313.15 K): 0.952 ± 0.033 mPa·s; speed of sound ([1]; 313.15 K): 1279.7 ± 1.2 m/s; mass density ([1]; 313.15 K): 1010.98 ± 0.24 kg/m3; viscosity ([1]; 318.15 K): 0.883 ± 0.031 mPa·s; speed of sound ([1]; 318.15 K): 1258.2 ± 1.2 m/s; mass density ([1]; 318.15 K): 1005.28 ± 0.23 kg/m3; viscosity ([1]; 323.15 K): 0.822 ± 0.029 mPa·s; speed of sound ([1]; 323.15 K): 1237.4 ± 1.2 m/s; mass density ([1]; 323.15 K): 999.58 ± 0.23 kg/m3
CCCCCCCO [heptan-1-ol] | 5.869 ± 0.2 | 1328.3 ± 1.2 | 819.73 ± 0.23 | 4.989 ± 0.17 | 1311.3 ± 1.2 | 816.183 ± 0.23 | 4.27 ± 0.15 | 1294.5 ± 1.2 | 812.61 ± 0.23 | 3.677 ± 0.13 | 1277.7 ± 1.2 | 809.011 ± 0.23 | 3.186 ± 0.11 | 1261.1 ± 1.2 | 805.383 ± 0.24 | 2.777 ± 0.096 | 1245.1 ± 1.2 | 801.731 ± 0.24 | –
C1COCCO1 [1,4-dioxane] | 1.212 ± 0.042 | 1345.1 ± 1.2 | 1027.99 ± 0.25 | 1.115 ± 0.039 | 1323.1 ± 1.2 | 1022.33 ± 0.25 | 1.028 ± 0.036 | 1301.3 ± 1.2 | 1016.66 ± 0.24 | 0.952 ± 0.033 | 1279.7 ± 1.2 | 1010.98 ± 0.24 | 0.883 ± 0.031 | 1258.2 ± 1.2 | 1005.28 ± 0.23 | 0.822 ± 0.029 | 1237.4 ± 1.2 | 999.58 ± 0.23 | –

From the NIST ThermoML archive (doi:10.1021/je400512u)
